# Measured values reported in patent EP3046573B1, “AMYLIN ANALOGUES” (Zealand Pharma A/S, priority 2013, dated 2015).
# Read-outs that look alike come from different tables or passages of the source. Numbered stars: 1 amine (or outer) side, 2 acyl side, 3 side chain; on linkers, the order of the positions; unused ones are H or OH. Bridge positions count the residues as written; N and C are the ends. Square brackets hold non-standard residues; d marks the D form. Peptide text beside a SMILES is read from it. * marks the point of attachment. C20 diacid = O=C(O)CCCCCCCCCCCCCCCCCCC(=O)*; γGlu = O=C(O)[C@H](CCC(=O)[*:2])N[*:1]; NMeI = CC[C@H](C)[C@H](NC)C(=O)O; Sar = CNCC(=O)O
# Legend:
# [1] = Pharmacokinetics of test compounds in mice; format: in vivo; details: female, NMRI, mouse, plasma; for bioavailability: AUCinf (sc) / AUCinf (iv) x 100, 100 nmol/kg (Pramlintide 400 nmol/kg); for half-life: 100 nmol/kg (Pramlintide 400 nmol/kg)
# Description: NMRI mice (supplier: Taconic; females with a body weight of approximately 25 g) were given either a single subcutaneous (sc) bolus or a single intravenous (iv) bolus of each peptide to be tested.
# Following sc administration of test peptide (Compound 176, 1 or 18) (100 nmol/kg), blood samples were drawn 0.5, 2, 4, 8, 18, 40 and 56 hours post-dosing by eye bleeding. Following iv administration of Compound 176, 1 or 18 (100 nmol/kg), blood samples were drawn 0.08, 0.17, 0.5, 2, 8, 18 and 30 hours post-dosing by eye bleeding. The dosing vehicle used for each test peptide was a mannitol-containing histidine buffer (pH 7.0).
# Pramlintide (400 nmol/kg) was also administered as a single sc bolus or as a single iv bolus to mice. Following sc administration, blood samples were drawn 5, 15, 20, 30, 60, 120, 180 and 240 minutes post-dosing by sublingual bleeding. Following iv administration, blood samples were drawn 5, 10, 15, 30, 60, 120, 180, and 240 minutes post-dosing by sublingual bleeding. The dosing vehicle used for Pramlintide was a mannitol-containing acetate buffer (pH 4.0).
# Blood samples were taken from two mice at each time point, i.e. 14-16 mice were included for each compound. The mice were euthanized immediately after blood sampling by cervical dislocation. Plasma samples were analyzed after solid-phase extraction (SPE) by liquid chromatography mass spectrometry (LC-MS/MS). Mean plasma concentrations were used for calculation of the pharmacokinetic parameters using the non-compartmental approach in Phoenix WinNonlin 6.3.
# Plasma terminal elimination half-life (t½) was determined as In(2)/λz, where λz is the magnitude of the slope of the log linear regression of the log concentration versus time profile during the terminal phase.
# Bioavailability was determined as AUCinf (sc) / AUCinf (iv) x 100, where AUCinf is the area under the plasma concentration - time curve extrapolated to infinity (AUCinf = AUClast + Clast/λz, where Clast is the last observed plasma concentration).
# [2] = test system: male Zucker diabetic fatty (ZDF) rats; experiment: Efficacy testing: glycemic control in Zucker diabetic fatty rats; format: in vivo; details: for terminal HbA1c levels: 4 weeks, vehicle 8.7 ± 0.2
# Description: Whole-blood glucose levels were determined on tail-vein blood samples by the Biosen (EKF Diagnostic, Germany) enzyme-based electrode method. Blood samples were analyzed for glycated hemoglobin (HbA1c) using a Cobas c111 analyzer (Roche Diagnostics, Mannheim, Germany). Plasma insulin levels were measured using a Meso Scale Discovery (MSD) system (Rockville, MD, USA). Liver fat content was determined by magnetic resonance (MR) scanning using an Echo systems MR scanner. Fat depots were measured by weighing of excised fat.
# 84 male Zucker diabetic fatty (ZDF) rats (9-10 weeks of age) were used in this study. The animals were housed in groups of n = 2. Stratification of the animals was based on non-fasting blood glucose (primary), changes in non-fasting blood glucose measured from the arrival of the animals until one week before the initiation of the study (secondary) and body weight (tertiary). The animals were further divided into two "teams" with a pair-fed group (group 2) allocated to team 2. Animals from group 2 were pair-fed in order to compare between the contribution made by reduced food intake and by drug-induced effects on glycemic control. The amount of food eaten by the animals treated with Compound 82 (30 nmol/kg, team 1) each day was determined, and the same amount was given to a vehicle-treated pair-fed group of animals the following day.
# Rats were treated for 4 weeks with Compound 82 (3, 30 and 100 nmol/kg, sc, every (ev.) 5th day), Compound 18 (30 nmol/kg sc, every 5th day), or the GLP-1 analogue liraglutide (40 nmol/kg sc, twice daily (bid)).
# The effects of the compounds on glycemic control were investigated by measurement of non-fasting and fasting blood glucose levels and HbA1c levels.
# Statistical analyses were performed using GraphPad™ Prism version 5. The measured parameters were compared using one- way ANOVA followed by Dunnett's multiple comparison test. Comparison between the pair-fed vehicle-treated group and the Compound 82 (30 nmol/kg) group was done using Student's two-tailed and unpaired t-test. Differences were considered statistically significant at p < 0.05.
# [3] = single iv bolus, read-out: t½ (hours) iv (converted)
# [4] = single sc bolus, read-out: t½ (hours) sc (converted)
Compound,bioavailability [1],"half-life [1, 3]","half-life [1, 4]",terminal HbA1c levels ([2]; 3 nmol/kg sc every 5th day),terminal HbA1c levels ([2]; 30 nmol/kg sc every 5th day),"HbA1c levels compared to the pair-fed group ([2]; 30 nmol/kg, P < 0.05)",terminal HbA1c levels ([2]; 100 nmol/kg sc every 5th day),"non-fasting blood glucose levels on day 13 and on day 27 ([2]; compared to the vehicle treated rats, P < 0.001)","fasting blood glucose levels ([2]; terminal, Compound 82 3, 30, and 100 nmol/kg, Compound 18 30 nmol/kg, P < 0.001 vs. vehicle)"
"CC[C@H](C)[C@@H](C(=O)N[C@@H](CC(C)C)C(=O)N[C@@H](CO)C(=O)N[C@@H](CO)C(=O)N[C@H](C(=O)N[C@@H](CC(N)=O)C(=O)N[C@H](C(=O)NCC(=O)N[C@@H](CO)C(=O)N[C@@H](CC(N)=O)C(=O)N[C@H](C(=O)N1CCC[C@H]1C(N)=O)[C@@H](C)O)C(C)C)[C@@H](C)O)N(C)C(=O)[C@H](C)NC(=O)CN(C)C(=O)[C@H](Cc1ccccc1)NC(=O)[C@H](CC(N)=O)NC(=O)[C@H](CC(N)=O)NC(=O)[C@H](CO)NC(=O)[C@H](CO)NC(=O)[C@H](Cc1c[nH]cn1)NC(=O)[C@H](Cc1c[nH]cn1)NC(=O)[C@H](CC(C)C)NC(=O)[C@H](Cc1ccccc1)NC(=O)[C@H](CCC(=O)O)NC(=O)[C@H](C)NC(=O)[C@H](CC(C)C)NC(=O)[C@H](CCCNC(=N)N)NC(=O)[C@H](CCC(N)=O)NC(=O)[C@@H](NC(=O)[C@H](C)NC(=O)[C@@H]1CSSC[C@H](NC(=O)[C@H](CCCNC(=N)N)NC(=O)CC[C@H](NC(=O)CCCCCCCCCCCCCCCCCCC(=O)O)C(=O)O)C(=O)N[C@@H](CC(N)=O)C(=O)N[C@@H]([C@@H](C)O)C(=O)N[C@@H](C)C(=O)N[C@@H]([C@@H](C)O)C(=O)N1)[C@@H](C)O [Compound 1, [19CD]-isoGlu-RC()NTATC()ATQRLAEFLHHSSNNF-Gly(Me)-A-Ile(Me)-LSSTNVGSNTP-NH2] ({C20 diacid-γGlu}-RCNTATCATQRLAEFLHHSSNNF[Sar]A[NMeI]LSSTNVGSNTP-NH2; disulfide 2-7)",77%,32.9 h,34.6 h,–,–,–,–,–,–
"CC[C@H](C)[C@@H](C(=O)N[C@@H](CC(C)C)C(=O)N[C@@H](CO)C(=O)N[C@@H](CO)C(=O)N[C@H](C(=O)N[C@@H](CCC(=O)O)C(=O)N[C@H](C(=O)NCC(=O)N[C@@H](CO)C(=O)N[C@@H](CCC(=O)O)C(=O)N[C@H](C(=O)N1CCC[C@H]1C(N)=O)[C@@H](C)O)C(C)C)[C@@H](C)O)N(C)C(=O)[C@H](C)NC(=O)CN(C)C(=O)[C@H](Cc1ccccc1)NC(=O)[C@H](CO)NC(=O)[C@H](CO)NC(=O)[C@H](CCCNC(=N)N)NC(=O)[C@H](Cc1c[nH]cn1)NC(=O)[C@H](CC(C)C)NC(=O)[C@H](Cc1ccccc1)NC(=O)[C@H](CCC(=O)O)NC(=O)[C@H](C)NC(=O)[C@H](CC(C)C)NC(=O)[C@H](CCCNC(=N)N)NC(=O)[C@H](CCC(N)=O)NC(=O)[C@@H](NC(=O)[C@H](C)NC(=O)[C@@H]1CSSC[C@H](NC(=O)[C@H](CCCNC(=N)N)NC(=O)CC[C@H](NC(=O)CCCCCCCCCCCCCCCCCCC(=O)O)C(=O)O)C(=O)N[C@@H](CC(N)=O)C(=O)N[C@@H]([C@@H](C)O)C(=O)N[C@@H](C)C(=O)N[C@@H]([C@@H](C)O)C(=O)N1)[C@@H](C)O [Compound 82, [19CD]-isoGlu-RC()NTATC()ATQRLAEFLHRSSF-Gly(Me)-A-Ile(Me)-LSSTEVGSETP-NH2] ({C20 diacid-γGlu}-RCNTATCATQRLAEFLHRSSF[Sar]A[NMeI]LSSTEVGSETP-NH2; disulfide 2-7)",–,–,–,5.6 ± 0.2%,5.4 ± 0.1%,significant reductions,5.4 ± 0.1%,significantly lower,significantly decreased
"CC[C@H](C)[C@@H](C(=O)N[C@@H](CC(C)C)C(=O)N1CCC[C@H]1C(=O)N1CCC[C@H]1C(=O)N[C@H](C(=O)N[C@@H](CC(N)=O)C(=O)N[C@H](C(=O)NCC(=O)N[C@@H](CO)C(=O)N[C@@H](CC(N)=O)C(=O)N[C@H](C(=O)N1CCC[C@H]1C(N)=O)[C@@H](C)O)C(C)C)[C@@H](C)O)N(C)C(=O)CN(C)C(=O)[C@H](Cc1ccccc1)NC(=O)[C@H](CC(N)=O)NC(=O)[C@H](CC(N)=O)NC(=O)[C@H](CO)NC(=O)[C@H](CO)NC(=O)[C@H](Cc1c[nH]cn1)NC(=O)[C@H](Cc1c[nH]cn1)NC(=O)[C@H](CC(C)C)NC(=O)[C@H](Cc1ccccc1)NC(=O)[C@H](CCC(=O)O)NC(=O)[C@H](C)NC(=O)[C@H](CC(C)C)NC(=O)[C@H](CCCNC(=N)N)NC(=O)[C@H](CCC(N)=O)NC(=O)[C@@H](NC(=O)[C@H](C)NC(=O)[C@@H]1CSSC[C@H](NC(=O)[C@H](CCCNC(=N)N)NC(=O)CC[C@H](NC(=O)CCCCCCCCCCCCCCCCCCC(=O)O)C(=O)O)C(=O)N[C@@H](CC(N)=O)C(=O)N[C@@H]([C@@H](C)O)C(=O)N[C@@H](C)C(=O)N[C@@H]([C@@H](C)O)C(=O)N1)[C@@H](C)O [Compound 176, [19CD]-isoGlu-RC()NTATC()ATQRLAEFLHHSSNNF-Gly(Me)-Ile(Me)-LPPTNVGSNTP-NH2] ({C20 diacid-γGlu}-RCNTATCATQRLAEFLHHSSNNF[Sar][NMeI]LPPTNVGSNTP-NH2; disulfide 2-7)",81%,24.4 h,23.8 h,–,–,–,–,–,–
